Measured values reported in PMC6804233, “Design and Synthesis of Novel 1,3-Thiazole and 2-Hydrazinyl-1,3-Thiazole Derivatives as Anti-Candida Agents: In Vitro Antifungal Screening, Molecular Docking Study, and Spectroscopic Investigation of their Binding Interaction with Bovine Serum Albumin” (Molecules, 2019).

Biological target: T1, bovine serum albumin (BSA) (Bos taurus, UniProt P02769)
T1 construct: gene ALB; BSA fraction V
Assay: Intrinsic tryptophan fluorescence quenching titration (Stern–Volmer; double-log plot for Kb), pH […], room temperature
Format: binding
Conditions: read-out: Kb × 10^5 (M^-1) (converted)

T1 sequence (P02769 25-607): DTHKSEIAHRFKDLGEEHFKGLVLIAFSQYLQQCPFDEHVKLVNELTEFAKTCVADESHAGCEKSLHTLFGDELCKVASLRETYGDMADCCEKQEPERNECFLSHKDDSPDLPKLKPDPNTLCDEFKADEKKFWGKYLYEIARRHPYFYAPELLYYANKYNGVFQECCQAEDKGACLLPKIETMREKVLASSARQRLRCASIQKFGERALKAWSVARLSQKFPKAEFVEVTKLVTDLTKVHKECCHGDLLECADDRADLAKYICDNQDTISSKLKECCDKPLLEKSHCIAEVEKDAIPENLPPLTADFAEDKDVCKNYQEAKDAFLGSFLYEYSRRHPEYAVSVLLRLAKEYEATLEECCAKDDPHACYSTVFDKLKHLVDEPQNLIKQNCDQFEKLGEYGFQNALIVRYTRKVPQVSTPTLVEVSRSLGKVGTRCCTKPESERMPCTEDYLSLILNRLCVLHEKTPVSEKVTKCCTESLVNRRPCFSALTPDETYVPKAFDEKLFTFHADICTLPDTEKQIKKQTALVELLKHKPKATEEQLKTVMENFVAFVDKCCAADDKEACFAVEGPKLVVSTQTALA

Kd: 4.42 µM
SMILES: Cc1ccc(-c2csc(NN=C(COc3cc(C)ccc3C(C)C)c3ccccc3)n2)cc1 [7e, 2-(2-(2-(2-isopropyl-5-methylphenoxy)-1-phenylethylidene)hydrazineyl)-4-(p-tolyl)thiazole]
